The target of the experiment is T1, Human M4 (Homo sapiens, UniProt P08173).
T1 sequence (P08173 1-479): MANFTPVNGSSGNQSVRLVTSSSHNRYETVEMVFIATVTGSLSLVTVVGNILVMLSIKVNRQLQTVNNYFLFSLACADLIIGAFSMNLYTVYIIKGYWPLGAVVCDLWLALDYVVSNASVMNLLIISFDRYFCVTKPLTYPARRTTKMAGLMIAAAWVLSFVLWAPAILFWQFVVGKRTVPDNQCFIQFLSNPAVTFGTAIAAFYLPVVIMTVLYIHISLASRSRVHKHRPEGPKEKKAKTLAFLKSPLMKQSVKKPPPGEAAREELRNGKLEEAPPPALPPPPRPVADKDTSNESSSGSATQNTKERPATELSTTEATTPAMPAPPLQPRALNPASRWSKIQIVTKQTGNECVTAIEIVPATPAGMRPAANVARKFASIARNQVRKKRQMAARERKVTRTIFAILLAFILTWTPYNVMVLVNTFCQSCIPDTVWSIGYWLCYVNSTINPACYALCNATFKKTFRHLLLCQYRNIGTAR
Kind of experiment: M4 cell-based functional assay (calcium mobilization). Conditions: for Emax at 30 µM: % ACh maximum at 30 μM; for EC50: CHO-K1 hM4-Gqi5 cells, calcium flux, increase in EC20 acetylcholine response. On the set-up: expressed in transfected cells. The method, then:
Human (h) and rat (r) M4 CDNAs, along with the chimeric G protein Gqi5, were transfected into Chinese hamster ovary (CHO-K1) cells purchased from the American Type Culture Collection using Lipofectamine2000. The transfected cells were subjected to selection antibiotic treatment to generate stable cell lines; G418 sulfate (1 mg/ml) for selecting M4 expressing cells and Hygromycin B (500 μg/mL) for selecting Gqi5 expressing cells. The resulting polyclones were further screened to obtain monoclones of hM4-Gqi5 and rM4-Gqi5 for compound screening assay. Stable monoclone cells were maintained in Ham's F-12 medium containing 10% heat-inactivated fetal bovine serum (FBS), 1× Antibiotic/Antimycotic, 20 mM HEPES, 500 μg/mL G418 sulfate, and 200 μg/mL Hygromycin B in 37° C. humidified incubators in the presence of 5% CO2.
The high throughput assay was employed to measure receptor-induced mobilization of intracellular calcium to determine compound activity. Test compound was added to cells expressing the muscarinic receptors that were loaded with calcium sensitive fluorescent dye. After a ˜2.5 minute incubation period, a submaximal (EC20) concentration of acetylcholine was added, and the response measured. This kinetic assay allows for simultaneous screening and potency determination of multiple pharmacological modes of action including agonist and potentiator activity. CHO-K1 cells stably expressing muscarinic receptors were plated in growth medium lacking G418 and hygromycin at 15,000 cells/20 μL/well in Greiner 384-well black-walled, tissue culture (TC)-treated, clear-bottom plates (Greiner Bio-One). Cells were incubated overnight at 37° C. and 5% CO2. The next day, calcium assay buffer (Hank's balanced salt solution (HBSS), 20 mM HEPES, 2.5 mM Probenecid, 4.16 mM sodium bicarbonate (Sigma-Aldrich, St. Louis, MO)) was prepared to dilute compounds, agonists, and Fluo-4-acetomethoxyester (Fluo-4-AM), fluorescent calcium indicator dye. Compounds were serially diluted 1:3 into 10 point concentration response curves in DMSO using the Bravo Liquid Handler (Agilent, Santa Clara, CA), transferred to a 384 well daughter plates using an Echo acoustic liquid handler (Beckman Coulter, Indianapolis, Indiana), and diluted in assay Buffer to a 2× final concentration. The agonist plates were prepared using acetylcholine (ACh, Sigma-Aldrich, St. Louis, MO) concentrations for the EC20 and ECMAX responses by diluting in assay buffer to a 5× final concentration. The 2× dye solution (2.3 μM) was prepared by mixing a 2.3 mM Fluo-4-AM stock in DMSO with 10% (w/v) pluronic acid F-127 in a 1:1 ratio in assay buffer. Using a microplate washer (BioTek, Winooski, VT), cells were washed with assay buffer for 3 times to remove medium. After the final wash, 20 μL of assay buffer remained in the cell plates. Immediately, 20 μL of the 2× dye solution (final 1.15 μM) was added to each well of the cell plate using a Multidrop Combi dispenser (Thermo Fisher, Waltham, MA). After cells were incubated with the dye solutions for 45 min at 37° C. in the presence of 5% CO2, the dye solutions were removed and replaced with assay buffer using a microplate washer, leaving 20 μL of assay buffer in the cell plate.
The prepared compound, agonist, and cell plates were placed inside the Functional Drug Screening System uCell (FDSS uCell, Hamamatsu, Japan) to measure the calcium flux.
The triple add protocol was used to measure Ca kinetics; Compound, ACh for EC2O, and ACh for EC80 adds in an order. Briefly, after establishment of a fluorescence baseline for 2 seconds (excitation, 480 nm; emission, 530 nm), first add occurred by adding 20 μL of test compound to the cells, and the response was measured for 140 seconds. This is followed by second add; 10 μL (5×) of an EC20 concentration of ACh agonist was added to the cells, and the response of the cells was measured for 125 seconds. […]

On to `Cc1cc2nc(C)c(F)c(=O)n2nc1N1CCc2nc(Br)sc2C1` [Compound 40, 7-(2-bromo-6,7-dihydrothiazolo[5,4-c]pyridin-5(4H)-yl)-3-fluoro-2,8-dimethyl-4H-pyrimido[1,2-b]pyridazin-4-one], for which the Emax at 30 µM is 85% and the EC50 came out at 94 nM.

`Cc1cc2nc(C(=O)NCc3cncs3)cc(=O)n2nc1N1CCc2nc(Br)sc2C1` [Compound 42, 7-(2-bromo-6,7-dihydrothiazolo[5,4-c]pyridin-5(4H)-yl)-8-methyl-4-oxo-N-(thiazol-5-ylmethyl)-4H-pyrimido[1,2-b]pyridazine-2-carboxamide]: the Emax at 30 µM was found to be 87% and the EC50 amounted to 418 nM.

As to `Cn1ccc2c(N3CCc4nc(Br)sc4C3)ncnc21` [Compound 27, 2-bromo-5-(7-methyl-7H-pyrrolo[2,3-d]pyrimidin-4-yl)-4,5,6,7-tetrahydrothiazolo[5,4-c]pyridine], the Emax at 30 µM is 43% and the EC50 was over 10000 nM.

For `Cc1cc(C#N)cnc1N1CCc2nc(C3CC3)sc2C1` [Compound 16, 6-(2-cyclopropyl-6,7-dihydrothiazolo[5,4-c]pyridin-5(4H)-yl)-5-methylnicotinonitrile], the Emax at 30 µM came to 84% and the EC50 was 103 nM.

As for `Cc1cc(C#N)nnc1N1CCc2nc(Br)sc2C1` [Compound 19, 6-(2-bromo-6,7-dihydrothiazolo[5,4-c]pyridin-5(4H)-yl)-5-methylpyridazine-3-carbonitrile], the Emax at 30 µM was determined as 99% and the concentration giving a half-maximal response (EC50) came out at 851 nM.

Turning to `Cc1cc2nc(C(=O)N3CC(C)(F)C3)cc(=O)n2nc1N1CCc2nc(Br)sc2C1` [Compound 45, 7-(2-bromo-6,7-dihydrothiazolo[5,4-c]pyridin-5(4H)-yl)-2-(3-fluoro-3-methylazetidine-1-carbonyl)-8-methyl-4H-pyrimido[1,2-b]pyridazin-4-one], the Emax at 30 µM was 85% and the EC50 worked out at 752 nM.

In the case of `Cc1cc2nc(C(=O)N3CC4(COC4)C3)cc(=O)n2nc1N1CCc2nc(Br)sc2C1` [Compound 47, 7-(2-bromo-6,7-dihydrothiazolo[5,4-c]pyridin-5(4H)-yl)-8-methyl-2-(2-oxa-6-azaspiro[3.3]heptane-6-carbonyl)-4H-pyrimido[1,2-b]pyridazin-4-one], the Emax at 30 µM was 66% and the EC50 is 1940 nM.

As for `[2H]C([2H])([2H])c1nc2c(s1)CN(c1ncc(C#N)cc1C)CC2` [Compound 20, 5-methyl-6-(2-(methyl-d3)-6,7-dihydrothiazolo[5,4-c]pyridin-5(4H)-yl)nicotinonitrile], the Emax at 30 µM turned out to be 101% and the EC50 is 243 nM.

`Cc1cc2c(N3CCc4nc(Br)sc4C3)ncnc2s1` [Compound 24, 2-bromo-5-(6-methylthieno[2,3-d]pyrimidin-4-yl)-4,5,6,7-tetrahydrothiazolo[5,4-c]pyridine]: the maximum response (Emax) at 30 µM was 102% and the EC50 stood at 50 nM.

Take `CCOC(=O)c1cc(=O)n2nc(N3CCc4nc(Br)sc4C3)c(C)cc2n1` [Compound 52, ethyl 7-(2-bromo-6,7-dihydrothiazolo[5,4-c]pyridin-5(4H)-yl)-8-methyl-4-oxo-4H-pyrimido[1,2-b]pyridazine-2-carboxylate]: the Emax at 30 µM worked out at 92% and the EC50 was 868 nM.

Take `Cc1c(C#N)nnc(N2CCc3nc(Nc4cccc(F)c4)sc3C2)c1C` [Compound 6, 6-(2-((3-fluorophenyl)amino)-6,7-dihydrothiazolo[5,4-c]pyridin-5(4H)-yl)-4,5-dimethylpyridazine-3-carbonitrile]: the Emax at 30 µM was determined as 41% and the EC50 is over 10000 nM.

Regarding `Cc1cc2nc(=O)ccn2nc1N1CCc2nc(Br)sc2C1` [Compound 50, 7-(2-bromo-6,7-dihydrothiazolo[5,4-c]pyridin-5(4H)-yl)-8-methyl-2H-pyrimido[1,2-b]pyridazin-2-one], the Emax at 30 µM was 66% and the EC50 is 521 nM.

With `Cc1csc2ncnc(N3CCc4nc(Br)sc4C3)c12` [Compound 23, 2-bromo-5-(5-methylthieno[2,3-d]pyrimidin-4-yl)-4,5,6,7-tetrahydrothiazolo[5,4-c]pyridine], the Emax at 30 µM was found to be 82% and the EC50 is 204 nM.

With `[2H]C([2H])([2H])n1nc2nc(N3CCc4nc(C5(F)CC5)sc4C3)c(C)c(C)n2c1=O` [Compound 71, 7-(2-(1-fluorocyclopropyl)-6,7-dihydrothiazolo[5,4-c]pyridin-5(4H)-yl)-5,6-dimethyl-2-(methyl-d3)-[1,2,4]triazolo[4,3-a]pyrimidin-3(2H)-one], the Emax at 30 µM stood at 83% and the EC50 worked out at 7 nM.

As to `Cc1c(N2CCc3nc(C4CC4)sc3C2)nc2nn(CC3(C#N)CC3)c(=O)n2c1C` [Compound 73, 1-((7-(2-cyclopropyl-6,7-dihydrothiazolo[5,4-c]pyridin-5(4H)-yl)-5,6-dimethyl-3-oxo-[1,2,4]triazolo[4,3-a]pyrimidin-2(3H)-yl)methyl)cyclopropane-1-carbonitrile], the maximal effect (Emax) at 30 µM was 91% and the EC50 turned out to be 12 nM.

With `Cc1nc(N2CCc3nc(Br)sc3C2)c2cc(F)ccc2n1` [Compound 33, 2-bromo-5-(6-fluoro-2-methylquinazolin-4-yl)-4,5,6,7-tetrahydrothiazolo[5,4-c]pyridine], the Emax at 30 µM amounted to 99% and the EC50 turned out to be 79 nM.

With `Cc1c(N2CCc3nc(C4(C)CC4)sc3C2)nc2n[nH]c(=O)n2c1C` [Compound 68, 5,6-dimethyl-7-(2-(1-methylcyclopropyl)-6,7-dihydrothiazolo[5,4-c]pyridin-5(4H)-yl)-[1,2,4]triazolo[4,3-a]pyrimidin-3(2H)-one], the Emax at 30 µM came out at 97% and the EC50 is 40 nM.

For the compound `Cc1cc2nc(C(F)F)cc(=O)n2nc1N1CCc2nc(Br)sc2C1` [Compound 39, 7-(2-bromo-6,7-dihydrothiazolo[5,4-c]pyridin-5(4H)-yl)-2-(difluoromethyl)-8-methyl-4H-pyrimido[1,2-b]pyridazin-4-one], the Emax at 30 µM stood at 88% and the EC50 was found to be 75 nM.

Regarding `Cc1c(C#N)nnc(N2CCc3nc(C#N)sc3C2)c1C` [Compound 13, 5-(6-cyano-4,5-dimethylpyridazin-3-yl)-4,5,6,7-tetrahydrothiazolo[5,4-c]pyridine-2-carbonitrile], the Emax at 30 µM amounted to 78% and the EC50 was 1210 nM.

On to `Cc1cc2nc(=O)cc(C)n2nc1N1CCc2nc(Br)sc2C1` [Compound 51, 7-(2-bromo-6,7-dihydrothiazolo[5,4-c]pyridin-5(4H)-yl)-4,8-dimethyl-2H-pyrimido[1,2-b]pyridazin-2-one], for which the Emax at 30 µM turned out to be 71% and the concentration giving a half-maximal response (EC50) worked out at 378 nM.

These data come from patent US12139498B1, “Positive allosteric modulators of the muscarinic acetylcholine receptor M4” (Vanderbilt University, priority 2023, dated 2024).
